Measurements taken from article PMC8279406 (Journal of Medicinal Chemistry, 2021).

Columns and labels:
[1] = test system: recombinant K26GFP HSV-1 strain; assay: Infection neutralization assay, transfected J cells, K26GFP HSV-1, EGFP expression; type: cell-based; conditions: for effect on HSV-1 infection (in words): J cells expressing nectin1 alone; for effect on virus entry (in words): J cells expressing nectin1 plus αvβ6 alone
Source text: To this aim, we selected the J cells, which are negative for gD receptors and therefore cannot be infected by HSV-1 unless gD cognate receptors (i.e., nectin1) are transgenically expressed. […] In particular, J cells were transfected with low amounts of nectin1 plasmid, plus either αvβ6 or αvβ8 integrin plasmid or both, and then infected with the recombinant K26GFP HSV-1 strain. Indeed, the capsid protein ICP26 of this strain is fused to the green fluorescent protein (GFP),[60] whose cellular expression can be used to measure the viral infection. Thus, the K26GFP entry in J cells after compound treatment was evaluated using fluorescent microscopy (Figure 4A–T), and the enhanced green fluorescent protein (EGFP) expression was quantified using flow cytometry as the mean fluorescence intensity (MFI) of gated cells (Figure 4U). […] In parallel, we also evaluated the HSV infection in J cells expressing nectin1 plus either αvβ6 or αvβ8 alone.
J cells were transfected with a low amount (75 ng of DNA/24 well) of nectin1 alone (A–E), or with the same amount of nectin1 plus αvβ6 integrin (300 ng DNA/24 well) (F–J), or plus αvβ8 integrin (300 ng DNA/24 well) (K–O), or plus both the integrin receptors (P–T). […] The cells were infected with K26GFP. The nonpenetrated virus was inactivated by an acid wash. Infectivity was measured at 16 h after infection as EGFP expression. (A)–(T) panels show the EGFP expression in each sample for a typical experiment. (U) K26GFP infection was quantified as EGFP protein expression in the flow cytometry assay as the mean fluorescence intensity (MFI) of gated cells. Histograms represent the average of triplicates ± SD.
In other experiments, J cells were transfected with low amounts of plasmids encoding nectin1 (75 ng of DNA/24 well), plus or minus plasmids encoding αv + β6 or αv + β8 integrins (300 ng of DNA/24 well) or together by means of Lipofect 2000 (Life Technologies). The total amount of transfected plasmid DNA was made equal (675 ng/24 well) by the addition of Erb-2 plasmid DNA. […] Following infection, the unpenetrated virus was inactivated by means of an acid wash (40 mM citric acid, 10 mM KCl, 135 mM NaCl, pH 3),[87] and the cells were incubated for a further 16 h in the absence of the peptides or antibody. The extent of infection was assessed through EGFP expression.
Cytofluorimetric analyses were performed using an AccuriC6 flow cytometer (Becton Dickinson). A least 10 000 events were acquired for each sample. Microphotography of the inhibition experiment was conducted using a Nikon Eclipse Ni microscope.

[2] = target: T1, human αvβ8 integrin (Homo sapiens, UniProt P06756+P26012); assay: LAP(TGF-β1)-αvβ8 competitive solid-phase ELISA binding assay; conditions: for IC50: competitive ELISA, immobilized LAP, soluble integrin
T1 construct: purchased R&D Systems (Biotechne brand) 4135-AV
Procedure: The affinity and selectivity of the integrin peptide ligands were ascertained according to a modified method previously reported by some of us.[33],[47] The binding was determined in a competitive solid-phase binding assay using extracellular matrix proteins, soluble integrins, and pertinent integrin-specific antibodies in an enzyme-linked immunosorbent assay (ELISA).
The experimental procedure is as described for the αvβ6 assay, except for the following modifications. The plates were coated, washed, and blocked as described above. Soluble integrin αvβ8 was mixed with an equal volume of serially diluted inhibitors resulting in a final integrin concentration of 0.25 μg/mL and 0.0032–10 μM for the inhibitors. The primary and secondary antibodies are the same as in the integrin αvβ6 assay. Visualization and analysis were performed as described above. Each plate contained a linear peptide ([…]) as the internal standard.[3]

[3] = test system: nectin1; assay: Integrin internalization assay, surface nectin1 control by flow cytometry; type: cell-based; conditions: J cells with nectin1, αvβ6 and αvβ8, 700 μM, 1 h at 37 °C
Procedure: Figure 5 Integrin internalization assay. J cells were transfected with a low amount (75 ng of DNA/24 well) of nectin1 plus αvβ6 integrin (300 ng of DNA/24 well) and αvβ8 integrin (300 ng of DNA/24 well). Then, 48 h after transfection, the cells were exposed to 700 μM peptides for 1 h at 37 °C. Cells derived from samples treated or not treated with peptides were incubated for 1 h at 4 °C with FAB4155A (mAbβ6), FAB4775A (mAbβ8), and R1.302 (mAbnectin1) mAbs. Samples incubated with R1.302 were washed and subsequently incubated for 1 h at 4 °C with the allophycocyanin (APC) mouse secondary antibody. Integrin and nectin1 surface expression levels were quantified as flow cytometry expression of the APC mean fluorescence intensity (MFI) of gated cells. Histograms represent the average of triplicates ± SD.
J cells were transfected with low amounts of plasmids encoding nectin1 (75 ng of DNA/24 well), plus plasmids encoding αv + β6 and αv + β8 integrins (300 ng of DNA/24 well) by means of Lipofect 2000 (Life Technologies). Then, 48 h after transfection, the cells were incubated with a single concentration of peptides (700 μM) for 1 h at 37 °C. At the end of the treatment with the peptides, half of the sample was used to visualize the expression of integrins β6 and β8 or of nectin1 used as a control in a flow cytometry assay. […]

[4] = J cells expressing nectin1 plus both αvβ6 and αvβ8, 700 μM
[5] = J cells expressing nectin1 plus αvβ8 alone, 700 μM

SMILES | effect on HSV-1 infection (in words) ([1]; 700 μM) | effect on HSV infection (in words) [1, 4] | effect on virus entry (in words) ([1]; 700 μM) | effect on HSV infection (in words) [1, 5] | IC50 [2] | surface expression of nectin1 (in words) [3] | fold more potent than 1 for αvβ8 ([2]; 60 vs 174 nM)
N=C(N)NCCC[C@@H]1NC(=O)CC[C@@H](C(N)=O)NC(=O)[C@H](C2CCCCC2)NC(=O)[C@H](CC(=O)O)NC(=O)CNC1=O [compound 1, [Arg-Gly-Asp-Chg-Glu]-CONH2] | only treatment with R1.302 (B) was effective | only partially impaired | the virus entry was affected | inhibitory effects were detected only in the presence of 6 | 174 ± 31 nM | not altered | –
CN1C(=O)[C@H](C2CCCCC2)NC(=O)[C@H](CC(=O)O)NC(=O)CNC(=O)[C@H](CCCNC(=N)N)NC(=O)CC[C@H]1C(N)=O [compound 6, [Arg-Gly-Asp-Chg-(NMe)Glu]-CONH2] | only treatment with R1.302 (B) was effective | significantly reduced | the virus entry was affected | inhibitory effects were detected only in the presence of 6 | 60 ± 2 nM | not altered | 3 fold
